Earlier results on 1 substance are cited in US20130004563A1, “MULTIP[…]-ADENOSYLMETHIONINE COMPOSITIONS AND RELATED METHODS” (priority 2011, published 2013).

Test in data set [1]: not given
The source holds these as a separate data set.

S-adenosyl-L-methionine [SAMe]: the SAMe bioavailability entry (enteric-coated single unit tablets, compared with immediate release formulations) was “higher”. For the same substance, the half-life entry (in the body, single dose) was “approximately 6 hours”. Also, the stability in vitro entry in data set [1] is reported as “relatively unstable”.
